Experimental data published in PubChem BioAssay (NCI).
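1) Cells in 96-well plates. 2) Compound, 48 h, 5 concentrations. 3) Linear interpolation between surrounding doses. 4) Unreached endpoint = highest concentration. GI50 marks 50% less growth. TGI: concentration producing complete growth inhibition.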

What was measured:
Test in all cases: DTP human tumour cell line panel, 48 h
HCC-2998 colon = system: HCC-2998 colon
NCI-H522 lung = system: NCI-H522 lung
SK-OV-3 ovarian = system: SK-OV-3 ovarian
OVCAR-3 ovarian = system: OVCAR-3 ovarian
UACC-62 melanoma = system: UACC-62 melanoma
RPMI-8226 leukemia = system: RPMI-8226 leukemia
A549 NSCLC = system: A549 NSCLC
MCF7 breast = system: MCF7 breast
SNB-75 CNS = system: SNB-75 CNS
PC-3 prostate = system: PC-3 prostate

Row | Structure (SMILES) | TGI (HCC-2998 colon) [µM] | TGI (NCI-H522 lung) [µM] | TGI (SK-OV-3 ovarian) [µM] | TGI (OVCAR-3 ovarian) [µM] | TGI (UACC-62 melanoma) [µM] | TGI (RPMI-8226 leukemia) [µM] | TGI (A549 NSCLC) [µM] | GI50 (MCF7 breast) [µM] | TGI (MCF7 breast) [µM] | GI50 (HCC-2998 colon) [µM] | GI50 (NCI-H522 lung) [µM] | GI50 (SK-OV-3 ovarian) [µM] | GI50 (OVCAR-3 ovarian) [µM] | GI50 (UACC-62 melanoma) [µM] | GI50 (RPMI-8226 leukemia) [µM] | GI50 (A549 NSCLC) [µM] | GI50 (SNB-75 CNS) [µM] | TGI (SNB-75 CNS) [µM] | GI50 (PC-3 prostate) [µM] | TGI (PC-3 prostate) [µM]
1 | C=C1CC2(CCS(=O)(=O)c3ccccc32)OC1=O (stereo not given) | 37.1 | 11.4 | 44.1 | 21 | 31.6 | 10.6 | 35.2 | – | – | – | – | – | – | – | – | – | – | – | – | –
2 | Nc1ncn([C@H]2C[C@H](OP(=O)(O)OC[C@H]3O[C@@H](n4cnc5c(=O)[nH]c(N)nc54)C[C@@H]3O)[C@@H](CO)O2)c(=O)n1 | > 100 | > 100 | > 100 | > 100 | > 100 | > 100 | > 100 | 51.9 | > 100 | > 100 | > 100 | > 100 | > 100 | > 100 | > 100 | 82.9 | > 100 | > 100 | – | –
3 | CN(/N=C\c1ccnc2ccccc12)c1ccccc1 | – | 41.9 | 66 | 44.2 | 37.2 | > 100 | 53.1 | – | – | – | – | – | – | – | – | – | – | 94.9 | – | –
4 | Cc1ccc(C(=O)NCCN(C)C)c2nc3ccccc3cc12 | 13.4 | – | > 100 | 6.79 | > 100 | > 100 | 4.53 | – | – | – | – | – | – | – | – | – | – | 3.54 | – | –
5 | O=C1C(=O)N(c2ccc(Cl)cc2)C(=O)C(=Nc2cccc3c(=O)[nH][nH]c(=O)c23)C1c1nc2ccccc2o1 (stereo not given) | > 100 | – | > 100 | > 100 | > 100 | > 100 | > 100 | – | – | – | – | – | – | – | – | – | – | > 100 | – | –
6 | COC12OCCN(C)C1=CC(=O)C1(C)N=NCC12 (stereo not given) | > 100 | > 100 | > 100 | > 100 | > 100 | > 100 | > 100 | – | – | – | – | – | – | – | – | – | – | > 100 | – | –
7 | Cc1ccc(Sc2ccccc2N)cc1 | > 100 | 38.1 | > 100 | > 100 | > 100 | 53.4 | > 100 | – | – | – | – | – | – | – | – | – | – | > 100 | – | –
8 | CCCCCCCCCCOC(=O)NCCC | 76.8 | 50.4 | > 100 | > 100 | > 100 | 43.3 | > 100 | – | – | – | – | – | – | – | – | – | – | > 100 | – | –
9 | COc1cccc(C2SCc3nc4ccccc4n32)c1 (stereo not given) | > 100 | – | > 100 | > 100 | > 100 | – | > 100 | – | – | – | – | – | – | – | – | – | – | > 100 | – | –
10 | O=C(O)CN(c1ccc(F)cc1)S(=O)(=O)c1ccccc1 | – | > 100 | > 100 | > 100 | > 100 | > 100 | > 100 | – | – | – | – | – | – | – | – | – | – | > 100 | – | –
11 | Cc1ccc(S(=O)(=O)OCCOCCOCCOCCOCCOS(=O)(=O)c2ccc(C)cc2)cc1 | > 100 | > 100 | > 100 | > 100 | > 100 | 92.7 | > 100 | – | – | – | – | – | – | – | – | – | – | > 100 | – | –
12 | N#CCc1nnc(N)o1 | – | > 100 | > 100 | > 100 | > 100 | > 100 | > 100 | – | – | – | – | – | – | – | – | – | – | > 100 | – | –
13 | CC(C)=NNC(=S)NC12CC3CC(CC(C3)C1)C2 | – | > 100 | > 100 | > 100 | > 100 | > 100 | > 100 | – | – | – | – | – | – | – | – | – | – | > 100 | – | –
14 | Cc1ccc(C2=Nc3ccccc3S(=O)C(c3ccc4c(c3)OCO4)C2)cc1 (stereo not given) | > 10 | 44.7 | 91.3 | 69.4 | 51.2 | – | > 100 | – | – | – | – | – | – | – | – | – | – | > 100 | – | –
15 | O=C(O)c1c2c(cc3c(=O)cc(-c4ccccc4)oc13)CCCC2 | > 100 | > 100 | > 100 | > 100 | > 100 | > 100 | > 100 | – | – | – | – | – | – | – | – | – | – | > 100 | – | –
16 | c1ccc2c(CNCCCCCCCCNCc3cccc4ccccc34)cccc2c1 | – | 3.24 | 30.9 | 22.5 | 3.24 | 3.87 | 5.41 | – | – | – | – | – | – | – | – | – | – | 3.35 | – | –
17 | O=[N+]([O-])C=C1c2ccccc2-c2ccccc21 | 30.6 | – | – | 28.4 | – | 5.5 | 42.8 | – | – | – | – | – | – | – | – | – | – | 40.7 | – | –
18 | C=C1C(=O)O[C@H]2[C@H]1CC/C(CNC(=O)/C=C/c1ccccc1F)=C\CC[C@@]1(C)O[C@@H]21 | 3.59 | 1.64 | 28.3 | 2.1 | 2.94 | 5.84 | 24.5 | – | – | 1.88 | 0.399 | 13.1 | 0.691 | 1.47 | 1.41 | 7 | 2.18 | 8.29 | 2 | 4.29
19 | CCOC(=O)CN(c1ccccc1)c1nc(=[N+](C)C)ss1 | > 100 | 0.492 | > 100 | 2 | 59.3 | 55.5 | > 100 | – | – | – | – | – | – | – | – | – | – | > 100 | – | –
20 | COc1cc(O)c2c(c1)C(=O)C1=C(C2=O)C(O)C[C@@](C)(O)C1 (stereo not given in full) | 2.91 | 2.47 | 17.1 | 5.67 | 3.1 | 6.52 | 11.5 | – | – | – | – | – | – | – | – | – | – | – | – | –
